# Source: BigSolDB 2.1
structure (smiles),measurement,setting,value
C[C@]12CCC3=C4CCC(=O)C=C4CC[C@H]3[C@@H]1CC[C@@]2(O)CC#N,solubility (mole fraction),"in DMF, 273.15 K",0.0262
same,solubility (mole fraction),"in DMF, 278.15 K",0.0275
same,solubility (mole fraction),"in DMF, 283.15 K",0.0293
same,solubility (mole fraction),"in DMF, 288.15 K",0.0303
same,solubility (mole fraction),"in DMF, 293.15 K",0.0318
same,solubility (mole fraction),"in DMF, 298.15 K",0.0333
same,solubility (mole fraction),"in DMF, 303.15 K",0.0343
same,solubility (mole fraction),"in DMF, 308.15 K",0.0354
same,solubility (mole fraction),"in DMF, 313.15 K",0.0364
same,solubility (mole fraction),"in DMF, 318.15 K",0.0374
same,solubility (mole fraction),"in MTBE, 273.15 K",0.000258
same,solubility (mole fraction),"in MTBE, 278.15 K",0.000281
same,solubility (mole fraction),"in MTBE, 283.15 K",0.000302
same,solubility (mole fraction),"in MTBE, 288.15 K",0.000327
same,solubility (mole fraction),"in MTBE, 293.15 K",0.000355
same,solubility (mole fraction),"in MTBE, 298.15 K",0.000384
same,solubility (mole fraction),"in MTBE, 303.15 K",0.000416
same,solubility (mole fraction),"in MTBE, 308.15 K",0.00045
same,solubility (mole fraction),"in MTBE, 313.15 K",0.000489
same,solubility (mole fraction),"in MTBE, 318.15 K",0.000531
same,solubility (mole fraction),"in THF, 273.15 K",0.0106
same,solubility (mole fraction),"in THF, 278.15 K",0.0115
same,solubility (mole fraction),"in THF, 283.15 K",0.0125
same,solubility (mole fraction),"in THF, 288.15 K",0.0138
same,solubility (mole fraction),"in THF, 293.15 K",0.0148
same,solubility (mole fraction),"in THF, 298.15 K",0.0158
same,solubility (mole fraction),"in THF, 303.15 K",0.0172
same,solubility (mole fraction),"in THF, 308.15 K",0.0182
same,solubility (mole fraction),"in THF, 313.15 K",0.0192
same,solubility (mole fraction),"in THF, 318.15 K",0.0201
same,solubility (mole fraction),"in acetone, 273.15 K",0.00464
same,solubility (mole fraction),"in acetone, 278.15 K",0.00495
same,solubility (mole fraction),"in acetone, 283.15 K",0.00536
same,solubility (mole fraction),"in acetone, 288.15 K",0.00576
same,solubility (mole fraction),"in acetone, 293.15 K",0.00616
same,solubility (mole fraction),"in acetone, 298.15 K",0.00667
same,solubility (mole fraction),"in acetone, 303.15 K",0.00717
same,solubility (mole fraction),"in acetone, 308.15 K",0.00777
same,solubility (mole fraction),"in acetone, 313.15 K",0.00828
same,solubility (mole fraction),"in acetone, 318.15 K",0.00899
same,solubility (mole fraction),"in acetonitrile, 273.15 K",0.00125
same,solubility (mole fraction),"in acetonitrile, 278.15 K",0.00149
same,solubility (mole fraction),"in acetonitrile, 283.15 K",0.00172
same,solubility (mole fraction),"in acetonitrile, 288.15 K",0.00202
same,solubility (mole fraction),"in acetonitrile, 293.15 K",0.00232
same,solubility (mole fraction),"in acetonitrile, 298.15 K",0.00273
same,solubility (mole fraction),"in acetonitrile, 303.15 K",0.00313
same,solubility (mole fraction),"in acetonitrile, 308.15 K",0.00363
same,solubility (mole fraction),"in acetonitrile, 313.15 K",0.00414
same,solubility (mole fraction),"in acetonitrile, 318.15 K",0.00475
same,solubility (mole fraction),"in ethanol, 273.15 K",0.000981
same,solubility (mole fraction),"in ethanol, 278.15 K",0.00122
same,solubility (mole fraction),"in ethanol, 283.15 K",0.00152
same,solubility (mole fraction),"in ethanol, 288.15 K",0.00189
same,solubility (mole fraction),"in ethanol, 293.15 K",0.00233
same,solubility (mole fraction),"in ethanol, 298.15 K",0.00287
same,solubility (mole fraction),"in ethanol, 303.15 K",0.00353
same,solubility (mole fraction),"in ethanol, 308.15 K",0.00434
same,solubility (mole fraction),"in ethanol, 313.15 K",0.00524
same,solubility (mole fraction),"in ethanol, 318.15 K",0.00637
same,solubility (mole fraction),"in ethyl acetate, 273.15 K",0.00145
same,solubility (mole fraction),"in ethyl acetate, 278.15 K",0.00167
same,solubility (mole fraction),"in ethyl acetate, 283.15 K",0.00192
same,solubility (mole fraction),"in ethyl acetate, 288.15 K",0.00215
same,solubility (mole fraction),"in ethyl acetate, 293.15 K",0.00242
same,solubility (mole fraction),"in ethyl acetate, 298.15 K",0.00273
same,solubility (mole fraction),"in ethyl acetate, 303.15 K",0.00304
same,solubility (mole fraction),"in ethyl acetate, 308.15 K",0.00338
same,solubility (mole fraction),"in ethyl acetate, 313.15 K",0.00374
same,solubility (mole fraction),"in ethyl acetate, 318.15 K",0.00414
same,solubility (mole fraction),"in isopropanol, 273.15 K",0.000738
same,solubility (mole fraction),"in isopropanol, 278.15 K",0.000899
same,solubility (mole fraction),"in isopropanol, 283.15 K",0.0011
same,solubility (mole fraction),"in isopropanol, 288.15 K",0.00131
same,solubility (mole fraction),"in isopropanol, 293.15 K",0.00158
same,solubility (mole fraction),"in isopropanol, 298.15 K",0.00192
same,solubility (mole fraction),"in isopropanol, 303.15 K",0.00227
same,solubility (mole fraction),"in isopropanol, 308.15 K",0.00273
same,solubility (mole fraction),"in isopropanol, 313.15 K",0.00323
same,solubility (mole fraction),"in isopropanol, 318.15 K",0.00378
same,solubility (mole fraction),"in methanol, 273.15 K",0.00182
same,solubility (mole fraction),"in methanol, 278.15 K",0.00209
same,solubility (mole fraction),"in methanol, 283.15 K",0.00235
same,solubility (mole fraction),"in methanol, 288.15 K",0.00269
same,solubility (mole fraction),"in methanol, 293.15 K",0.00303
same,solubility (mole fraction),"in methanol, 298.15 K",0.00344
same,solubility (mole fraction),"in methanol, 303.15 K",0.00384
same,solubility (mole fraction),"in methanol, 308.15 K",0.00434
same,solubility (mole fraction),"in methanol, 313.15 K",0.00493
same,solubility (mole fraction),"in methanol, 318.15 K",0.00553
same,solubility (mole fraction),"in n-propanol, 273.15 K",0.00136
same,solubility (mole fraction),"in n-propanol, 278.15 K",0.00161
same,solubility (mole fraction),"in n-propanol, 283.15 K",0.00187
same,solubility (mole fraction),"in n-propanol, 288.15 K",0.00219
same,solubility (mole fraction),"in n-propanol, 293.15 K",0.00256
same,solubility (mole fraction),"in n-propanol, 298.15 K",0.00298
same,solubility (mole fraction),"in n-propanol, 303.15 K",0.00345
same,solubility (mole fraction),"in n-propanol, 308.15 K",0.00399
same,solubility (mole fraction),"in n-propanol, 313.15 K",0.00462
same,solubility (mole fraction),"in n-propanol, 318.15 K",0.00532
same,solubility (mole fraction),"in water, 273.15 K",5.99e-06
same,solubility (mole fraction),"in water, 278.15 K",6.47e-06
same,solubility (mole fraction),"in water, 283.15 K",6.99e-06
same,solubility (mole fraction),"in water, 288.15 K",7.58e-06
same,solubility (mole fraction),"in water, 293.15 K",8.19e-06
same,solubility (mole fraction),"in water, 298.15 K",8.88e-06
same,solubility (mole fraction),"in water, 303.15 K",9.62e-06
same,solubility (mole fraction),"in water, 308.15 K",1.04e-05
same,solubility (mole fraction),"in water, 313.15 K",1.13e-05
same,solubility (mole fraction),"in water, 318.15 K",1.23e-05
